Source: US11643396B2, “BRD4-kinase inhibitors as cancer therapeutics” (H. LEE MOFFITT CANCER CENTER AND RESEARCH INSTITUTE, INC., priority 2015, dated 2023)
Several values for one entry are separate records, joined by “and”; a condition that tells them apart may be missing. Equal entries are not always repeated. Where two headings read alike, the source gives them in different places.

How the values were obtained:
HEK293 = experiment: Cellular IC50, HEK293; type: cell-based; details: Homo sapiens
BRD4 = BRD4 (Homo sapiens (Human), UniProt O60885); experiment: Differential Scanning Fluorimetry (DSF), stability of BRD4 upon ligand binding; details: for DSF ΔTm / IC50: Table 1; for IC50: estimated from DSF; for DSF: BRD4 ΔTm: 100 μM protein, 4 μM compound and 2% DMSO, Table 4
UKE-1 = experiment: Cellular IC50, UKE-1; type: cell-based; details: UKE1
BRDT-1 = BRDT-1 (Homo sapiens (Human), UniProt Q58F21); experiment: Alpha Screen (Reaction Biology); type: binding; details: Reaction Biology data
MV4-11 AML cells [1] = experiment: Cellular IC50, MV-4-11; type: cell-based; details: Homo sapiens
Method: Cellular activity of promising compounds is assessed using MM.1S and MV4-11 AML cells using c-Myc levels as biomarker (6-12 hr treatment) and antiproliferative activity (48-72 hr treatment) as described (Ciceri et al., Dual kinase-bromodomain inhibitors for rationally designed polypharmacology. Nat Chem Biol 2014).

BRD4-1 = BRD4-1 (Homo sapiens (Human), UniProt O60885); experiment: Alpha Screen (Reaction Biology); type: binding; details: Reaction Biology data
MM.1S cells = experiment: Cellular IC50 (cell survival, MTT), MM.1S; type: cell-based
Excerpt: Increased anti-proliferative effects are correlated with an early, strong reduction of both pSTAT2 and c-Myc levels. The inhibitors highlighted are the most promising equipotent dual BET-JAK2 inhibitors of this series.

BRD4-2 = BRD4-2 (Homo sapiens (Human), UniProt O60885); experiment: Alpha Screen (Reaction Biology); type: binding; details: Reaction Biology data; value in parentheses
c-Myc = details: literature; cited from earlier work
Solubility in PBS buffer = type: physicochemical
MV4-11 AML cells [2] = details: literature; read-out: IC50, inhibition of proliferation of MV4-11 AML cells; cited from earlier work
JAK2 = JAK2 (Homo sapiens (Human), UniProt O60674); experiment: HotSpot Kinase assay (Reaction Biology); type: biochemical; details: Reaction Biology data
Saos-2 = experiment: Cellular IC50, Saos-2; type: cell-based; details: Homo sapiens
[3] = Homo sapiens, MM1.S, read-out: Cellular IC50 MM.1S

Sequence of JAK2 (O60674 whole entry): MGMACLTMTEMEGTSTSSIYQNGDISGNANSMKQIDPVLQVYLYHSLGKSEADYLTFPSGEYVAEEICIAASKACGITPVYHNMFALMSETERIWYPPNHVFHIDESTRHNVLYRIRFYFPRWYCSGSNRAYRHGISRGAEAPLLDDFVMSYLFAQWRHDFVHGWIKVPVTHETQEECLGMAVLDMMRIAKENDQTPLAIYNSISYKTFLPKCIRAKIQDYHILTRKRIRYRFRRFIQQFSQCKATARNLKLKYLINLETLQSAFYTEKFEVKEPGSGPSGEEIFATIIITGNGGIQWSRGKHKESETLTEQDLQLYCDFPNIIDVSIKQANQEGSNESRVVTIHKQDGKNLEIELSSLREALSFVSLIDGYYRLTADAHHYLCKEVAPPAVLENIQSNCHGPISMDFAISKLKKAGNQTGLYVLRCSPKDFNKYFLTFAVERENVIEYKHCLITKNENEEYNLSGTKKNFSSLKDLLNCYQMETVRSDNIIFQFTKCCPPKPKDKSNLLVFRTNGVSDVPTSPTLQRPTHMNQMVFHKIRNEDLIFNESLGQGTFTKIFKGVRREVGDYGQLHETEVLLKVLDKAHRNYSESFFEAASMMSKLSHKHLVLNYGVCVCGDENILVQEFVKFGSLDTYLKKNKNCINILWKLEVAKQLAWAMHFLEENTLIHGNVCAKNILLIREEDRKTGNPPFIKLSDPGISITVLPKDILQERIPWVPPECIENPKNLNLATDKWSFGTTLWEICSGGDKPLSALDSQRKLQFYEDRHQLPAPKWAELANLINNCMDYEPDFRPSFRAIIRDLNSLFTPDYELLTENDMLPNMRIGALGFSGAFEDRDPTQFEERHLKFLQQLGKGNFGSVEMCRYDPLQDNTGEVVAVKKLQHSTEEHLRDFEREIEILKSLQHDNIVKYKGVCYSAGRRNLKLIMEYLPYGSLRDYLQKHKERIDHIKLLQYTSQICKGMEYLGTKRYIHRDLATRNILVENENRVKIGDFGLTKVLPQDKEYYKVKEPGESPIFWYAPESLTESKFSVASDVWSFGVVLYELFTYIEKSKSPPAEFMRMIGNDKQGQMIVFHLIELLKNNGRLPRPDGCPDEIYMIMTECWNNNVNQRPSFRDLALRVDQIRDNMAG

For `Cc1nc(Nc2ccc(N3CCN(C)CC3)cc2)nc(Nc2cccc(S(=O)(=O)NC(C)C)c2)c1C`, the IC50 (HEK293) was 120000 nM, the “DSF ΔTm” value (BRD4) was 5.3 ± 0.064 °C and the IC50 (BRD4) was 370 nM.

Work on `CCOC(=O)c1cnc(Nc2ccc(N3CCN(C)CC3)cc2)nc1Nc1cccc(S(=O)(=O)NC(C)(C)C)c1` yielded an IC50 (BRD4) greater than 20000 nM.

For `CCCN(C)c1ccc(Nc2nc3c(c(Nc4cccc(S(N)(=O)=O)c4)n2)COC3)cc1`, the “DSF ΔTm” value (BRD4) was 2.9 ± 0.084 °C and the IC50 (BRD4) was 2300 nM.

`Cc1cnc(Nc2ccc(C(=O)NC3CCN(C)CC3)c(F)c2)nc1Nc1ccc(Cl)c(NS(=O)(=O)C(C)(C)C)c1` showed an IC50 (UKE-1) of 225 nM, an IC50 (BRDT-1) of 22.5 nM and an IC50 (MV4-11 AML cells [1]) of 38.3 nM. It also gave an IC50 (BRD4-1) of 9.55 nM.

Compound `Cc1cnc(Nc2ccc(N3CCN(C)CC3)cc2)nc1Nc1cccc(NS(=O)(=O)C(C)(C)C)c1` has an IC50 (MV4-11 AML cells [1]) of 56.7 nM, an IC50 (MM.1S cells; [3]) of 399 nM and an IC50 (BRD4-2) of 23.6 nM.

In the case of `CC[C@@H]1C(=O)N(C)c2cnc(Nc3ccc(C(=O)NC4CCN(C)CC4)cc3OC)nc2N1C1CCCC1` [BI2536], the “downregulation of c-Myc in MM.1S cells” value (c-Myc) is listed as “strong downregulation of c-Myc”.

Compound `Cc1cnc(Nc2ccc(N3CCN(C)CC3)cc2)nc1Nc1ccc(Cl)c(NS(=O)(=O)C(C)(C)C)c1` [SG3-014B2.MSA] has a Solubility (Solubility in PBS buffer; in 1 mL PBS buffer (15% HPCD)) greater than 14.4 mg/mL and a Solubility (Solubility in PBS buffer; in 1 mL PBS buffer (~9.3% DMSO)) of 0.416 mg.

In the case of `Cc1cnc(Nc2ccc(N3CCN(C)CC3)cc2)nc1Nc1cccc(S(=O)(=O)NC(C)(C)C)c1` [TG101209, reference compound], the “DSF ΔTm” value (BRD4) is given as 6.83 ± 0.129 °C and 7.55 ± 0.154 °C and the “downregulation of c-Myc in MM.1S cells” value (c-Myc) is given as “strong downregulation of c-Myc”.

In the case of `Cc1cnc(Nc2ccc(OCCN3CCCC3)cc2)nc1Nc1cccc(S(=O)(=O)NC(C)(C)C)c1` [TG101348], the IC50 (MV4-11 AML cells [2]) is given as 79 nM and the “downregulation of c-Myc in MM.1S cells” value (c-Myc) is given as “strong downregulation of c-Myc”.

Compound `Cc1cnc(Nc2ccc(N3CCN(C)CC3)cc2)nc1Nc1ccc(Cl)c(NS(=O)(=O)C(C)(C)C)c1` [drawing 146] has an IC50 (MM.1S cells; read-out: MM.1S IC50) of 142 nM.

In the case of `Cc1cnc(Nc2ccc(N3CCN(C)CC3)c(F)c2)nc1Nc1cccc(NS(=O)(=O)C(C)(C)C)c1` [drawing 167], the “DSF ΔTm” value (BRD4) is reported as 11.2 ± 0.15 °C and the IC50 (MM.1S cells; read-out: MM.1S IC50) is reported as 146 nM.

In the case of `Cc1cnc(Nc2ccc(N3CCN(C)CC3)c(F)c2)nc1Nc1ccc(Cl)c(NS(=O)(=O)C(C)(C)C)c1` [drawing 168], the “DSF ΔTm” value (BRD4) is reported as 12.6 ± 0.069 °C and the IC50 (MM.1S cells; read-out: MM.1S IC50) is reported as 64 nM and 66 nM.

`Cc1cnc(Nc2ccc(N3CCN(C)CC3)c(F)c2)nc1Nc1ccc(Cl)c(NS(=O)(=O)C(C)(C)C)c1` [drawing 230] gave an IC50 (JAK2) of 3.36 nM, an IC50 (Saos-2) of 320 nM and an IC50 (UKE-1) of 294 nM. For the same compound, the IC50 (MV4-11 AML cells [1]) was 53.2 nM, the “DSF: BRD4 ΔTm” value (BRD4) was 12.6 ± 0.06 °C and the IC50 (MM.1S cells; [3]) was 66 nM.

For `Cc1cnc(Nc2ccc(N3CCN(C)CC3)c(F)c2)nc1Nc1cccc(NS(=O)(=O)C(C)(C)C)c1` [drawing 231], the IC50 (Saos-2) was 133 nM, the IC50 (UKE-1) was 200 nM and the IC50 (MV4-11 AML cells [1]) was 26.8 nM. The “DSF: BRD4 ΔTm” value (BRD4) was 11.2 ± 0.15 °C and the IC50 (MM.1S cells; [3]) was 146 nM.

For `Cc1cnc(Nc2ccc(N3CCN(C)CC3)cc2)nc1Nc1ccc(Cl)c(NS(=O)(=O)C(C)(C)C)c1` [drawing 232], the IC50 (MM.1S cells; [3]) was 142 nM, the IC50 (BRD4-2) was 27.3 nM and the IC50 (BRD4-1) was 25 nM.
